CCCCn1cc[n+](C)c1.F[B-](F)(F)F [1-butyl-3-methylimidazolium tetrafluoroborate]
100 kPa, Liquid
Details | mass density, Vibrating tube method [kg/m3] | viscosity, Concentric cylinders viscometry [mPa·s]
283.15 K | 1212.5 | 264.99
288.15 K | 1208.8 | 192.43
293.15 K | 1205.2 | 143.08
298.15 K | 1201.6 | 108.74
303.15 K | 1198 | 84.28
308.15 K | 1194.5 | 66.52
313.15 K | 1190.9 | 53.37
318.15 K | 1187.4 | 43.47
323.15 K | 1184 | 35.89
328.15 K | 1180.5 | 30.01
333.15 K | 1177 | 25.38
338.15 K | 1173.6 | 21.68
343.15 K | 1170.2 | 18.7
348.15 K | 1166.8 | 16.26
353.15 K | 1163.4 | 14.26
358.15 K | 1160.1 | 12.59
363.15 K | 1156.8 | 11.2

CCCCn1cc[n+](C)c1.N#C[S-] [1-butyl-3-methylimidazolium thiocyanate]
100 kPa, Liquid
Details | mass density, Vibrating tube method [kg/m3] | viscosity, Concentric cylinders viscometry [mPa·s]
283.15 K | 1079.2 | 139.54
288.15 K | 1076.2 | 104.51
293.15 K | 1073.2 | 82.91
298.15 K | 1070.2 | 62.63
303.15 K | 1067.2 | 49.94
308.15 K | 1064.2 | 40.48
313.15 K | 1061.3 | 34.08
318.15 K | 1058.4 | 27.8
323.15 K | 1055.5 | 23.49
328.15 K | 1052.6 | 20.06
333.15 K | 1049.8 | 17.58
338.15 K | 1047 | 15.08
343.15 K | 1044.1 | 13.24
348.15 K | 1041.4 | 11.71
353.15 K | 1038.6 | 10.67
358.15 K | 1035.8 | 9.355
363.15 K | 1033.1 | 8.436

CCCCn1cc[n+](C)c1.O=S(=O)([O-])C(F)(F)F [1-butyl-3-methylimidazolium trifluoromethanesulfonate]
100 kPa
Details | mass density [kg/m3] | viscosity [mPa·s]
283.15 K, Metastable liquid, Concentric cylinders viscometry | – | 225.61
283.15 K, Metastable liquid, Vibrating tube method | 1308.4 | –
288.15 K, Metastable liquid, Concentric cylinders viscometry | – | 168.05
288.15 K, Metastable liquid, Vibrating tube method | 1304.3 | –
293.15 K, Concentric cylinders viscometry, Liquid | – | 128.51
293.15 K, Vibrating tube method, Liquid | 1300.3 | –
298.15 K, Concentric cylinders viscometry, Liquid | – | 99.14
298.15 K, Vibrating tube method, Liquid | 1296.3 | –
303.15 K, Concentric cylinders viscometry, Liquid | – | 78.26
303.15 K, Vibrating tube method, Liquid | 1292.3 | –
308.15 K, Concentric cylinders viscometry, Liquid | – | 62.76
308.15 K, Vibrating tube method, Liquid | 1288.4 | –
313.15 K, Concentric cylinders viscometry, Liquid | – | 51.33
313.15 K, Vibrating tube method, Liquid | 1284.5 | –
318.15 K, Concentric cylinders viscometry, Liquid | – | 42.1
318.15 K, Vibrating tube method, Liquid | 1280.6 | –
323.15 K, Concentric cylinders viscometry, Liquid | – | 35.13
323.15 K, Vibrating tube method, Liquid | 1276.7 | –
328.15 K, Concentric cylinders viscometry, Liquid | – | 29.63
328.15 K, Vibrating tube method, Liquid | 1272.8 | –
333.15 K, Concentric cylinders viscometry, Liquid | – | 25.5
333.15 K, Vibrating tube method, Liquid | 1268.9 | –
338.15 K, Concentric cylinders viscometry, Liquid | – | 21.72
338.15 K, Vibrating tube method, Liquid | 1265.1 | –
343.15 K, Concentric cylinders viscometry, Liquid | – | 18.84
343.15 K, Vibrating tube method, Liquid | 1261.3 | –
348.15 K, Concentric cylinders viscometry, Liquid | – | 16.47
348.15 K, Vibrating tube method, Liquid | 1257.5 | –
353.15 K, Concentric cylinders viscometry, Liquid | – | 14.83
353.15 K, Vibrating tube method, Liquid | 1253.7 | –
358.15 K, Concentric cylinders viscometry, Liquid | – | 12.86
358.15 K, Vibrating tube method, Liquid | 1249.9 | –
363.15 K, Concentric cylinders viscometry, Liquid | – | 11.48
363.15 K, Vibrating tube method, Liquid | 1246.2 | –

From the NIST ThermoML archive (doi:10.1021/acs.jced.6b00178)
